Experiments:
HiBit-BRM fusion protein = biological target: T1, HiBit-BRM fusion protein (Homo sapiens, UniProt P51531); test: HiBiT-BRM cell-based degradation assay (Nano-Glo HiBiT Lytic Detection, 24 h); details: HeLa cell line expressing HiBiT-BRM; for DC50: read-out: BRM HiBit Degradation IC50
T1 construct: expressed in transfected cells
Outline: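 Stable HiBiT-BRM HeLa line; 24 h compound exposure, top final 30 μM, 3-fold, 10 pts in duplicate. Lytic HiBiT/LgBiT luminescence readout. % degradation vs DMSO (0%) and 2 μM known BRM/BRG1 degrader (100%).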

[1] = biological target: T2, HiBit-BRG1 fusion protein (Homo sapiens, UniProt P51532); test: HiBiT-BRG1 cell-based degradation assay (Nano-Glo HiBiT Lytic Detection, 24 h); details: HeLa cell line expressing HiBit-BRG1 and LgBit; for DC50: read-out: BRMG1 HiBit Degradation IC50; for Dmax: read-out: BRG1 HiBit Degradation Maximum (%)
T2 construct: expressed in transfected cells
Outline: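 Stable HeLa line co-expressing HiBit-BRG1 and LgBit, 5000 cells/well, treated 24 h in a tissue culture incubator. Lysed with Nano-Glo HiBiT lytic reagent, luminescence read. % degradation normalized to DMSO (high control) and 2 μM reference BRM/BRG1 degrader (low control).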

T2 sequence (P51532 whole entry, the tested form may be a part): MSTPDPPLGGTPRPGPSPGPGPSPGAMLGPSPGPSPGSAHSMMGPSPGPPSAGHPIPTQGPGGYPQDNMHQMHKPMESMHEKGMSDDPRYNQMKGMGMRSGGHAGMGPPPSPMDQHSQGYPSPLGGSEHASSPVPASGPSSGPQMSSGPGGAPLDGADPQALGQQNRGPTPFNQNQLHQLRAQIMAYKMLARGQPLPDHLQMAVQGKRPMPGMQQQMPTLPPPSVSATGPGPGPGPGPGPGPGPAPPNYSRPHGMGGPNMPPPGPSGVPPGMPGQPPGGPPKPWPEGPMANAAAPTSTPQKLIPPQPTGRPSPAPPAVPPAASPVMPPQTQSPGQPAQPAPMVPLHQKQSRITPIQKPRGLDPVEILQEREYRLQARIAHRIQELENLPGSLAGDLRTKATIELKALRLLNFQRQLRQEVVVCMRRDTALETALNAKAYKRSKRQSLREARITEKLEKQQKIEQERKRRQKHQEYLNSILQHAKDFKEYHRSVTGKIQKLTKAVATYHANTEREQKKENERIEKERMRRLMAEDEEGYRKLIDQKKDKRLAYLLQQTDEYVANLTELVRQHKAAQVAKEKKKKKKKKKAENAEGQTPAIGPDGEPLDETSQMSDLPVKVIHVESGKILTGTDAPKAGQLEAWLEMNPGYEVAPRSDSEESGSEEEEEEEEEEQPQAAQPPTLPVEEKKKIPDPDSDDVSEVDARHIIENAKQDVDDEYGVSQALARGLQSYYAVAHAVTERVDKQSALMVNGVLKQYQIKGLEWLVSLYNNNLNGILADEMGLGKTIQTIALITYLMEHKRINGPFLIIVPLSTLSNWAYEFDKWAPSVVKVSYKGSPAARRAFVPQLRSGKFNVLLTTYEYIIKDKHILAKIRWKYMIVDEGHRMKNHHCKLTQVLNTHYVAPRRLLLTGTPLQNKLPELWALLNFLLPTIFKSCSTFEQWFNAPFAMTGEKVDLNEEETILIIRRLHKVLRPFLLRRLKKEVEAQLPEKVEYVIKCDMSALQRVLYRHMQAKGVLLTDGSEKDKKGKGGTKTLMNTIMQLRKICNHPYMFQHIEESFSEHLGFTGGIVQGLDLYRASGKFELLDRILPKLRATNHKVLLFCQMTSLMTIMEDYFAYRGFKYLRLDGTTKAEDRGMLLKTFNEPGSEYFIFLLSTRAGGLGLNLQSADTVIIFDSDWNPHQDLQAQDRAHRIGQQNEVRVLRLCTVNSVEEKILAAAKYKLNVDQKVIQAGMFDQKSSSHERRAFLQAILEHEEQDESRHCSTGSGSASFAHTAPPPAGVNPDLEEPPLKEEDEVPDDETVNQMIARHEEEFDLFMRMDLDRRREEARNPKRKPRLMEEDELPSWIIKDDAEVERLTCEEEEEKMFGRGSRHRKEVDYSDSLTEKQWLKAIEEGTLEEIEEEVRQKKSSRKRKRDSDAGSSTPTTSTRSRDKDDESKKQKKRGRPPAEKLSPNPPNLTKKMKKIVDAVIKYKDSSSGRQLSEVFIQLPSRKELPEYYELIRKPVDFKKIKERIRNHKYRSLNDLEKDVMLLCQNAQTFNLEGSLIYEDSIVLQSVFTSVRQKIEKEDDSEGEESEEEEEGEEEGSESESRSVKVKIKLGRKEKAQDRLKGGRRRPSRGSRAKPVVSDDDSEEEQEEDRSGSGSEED
T1 sequence (P51531 whole entry, the tested form may be a part): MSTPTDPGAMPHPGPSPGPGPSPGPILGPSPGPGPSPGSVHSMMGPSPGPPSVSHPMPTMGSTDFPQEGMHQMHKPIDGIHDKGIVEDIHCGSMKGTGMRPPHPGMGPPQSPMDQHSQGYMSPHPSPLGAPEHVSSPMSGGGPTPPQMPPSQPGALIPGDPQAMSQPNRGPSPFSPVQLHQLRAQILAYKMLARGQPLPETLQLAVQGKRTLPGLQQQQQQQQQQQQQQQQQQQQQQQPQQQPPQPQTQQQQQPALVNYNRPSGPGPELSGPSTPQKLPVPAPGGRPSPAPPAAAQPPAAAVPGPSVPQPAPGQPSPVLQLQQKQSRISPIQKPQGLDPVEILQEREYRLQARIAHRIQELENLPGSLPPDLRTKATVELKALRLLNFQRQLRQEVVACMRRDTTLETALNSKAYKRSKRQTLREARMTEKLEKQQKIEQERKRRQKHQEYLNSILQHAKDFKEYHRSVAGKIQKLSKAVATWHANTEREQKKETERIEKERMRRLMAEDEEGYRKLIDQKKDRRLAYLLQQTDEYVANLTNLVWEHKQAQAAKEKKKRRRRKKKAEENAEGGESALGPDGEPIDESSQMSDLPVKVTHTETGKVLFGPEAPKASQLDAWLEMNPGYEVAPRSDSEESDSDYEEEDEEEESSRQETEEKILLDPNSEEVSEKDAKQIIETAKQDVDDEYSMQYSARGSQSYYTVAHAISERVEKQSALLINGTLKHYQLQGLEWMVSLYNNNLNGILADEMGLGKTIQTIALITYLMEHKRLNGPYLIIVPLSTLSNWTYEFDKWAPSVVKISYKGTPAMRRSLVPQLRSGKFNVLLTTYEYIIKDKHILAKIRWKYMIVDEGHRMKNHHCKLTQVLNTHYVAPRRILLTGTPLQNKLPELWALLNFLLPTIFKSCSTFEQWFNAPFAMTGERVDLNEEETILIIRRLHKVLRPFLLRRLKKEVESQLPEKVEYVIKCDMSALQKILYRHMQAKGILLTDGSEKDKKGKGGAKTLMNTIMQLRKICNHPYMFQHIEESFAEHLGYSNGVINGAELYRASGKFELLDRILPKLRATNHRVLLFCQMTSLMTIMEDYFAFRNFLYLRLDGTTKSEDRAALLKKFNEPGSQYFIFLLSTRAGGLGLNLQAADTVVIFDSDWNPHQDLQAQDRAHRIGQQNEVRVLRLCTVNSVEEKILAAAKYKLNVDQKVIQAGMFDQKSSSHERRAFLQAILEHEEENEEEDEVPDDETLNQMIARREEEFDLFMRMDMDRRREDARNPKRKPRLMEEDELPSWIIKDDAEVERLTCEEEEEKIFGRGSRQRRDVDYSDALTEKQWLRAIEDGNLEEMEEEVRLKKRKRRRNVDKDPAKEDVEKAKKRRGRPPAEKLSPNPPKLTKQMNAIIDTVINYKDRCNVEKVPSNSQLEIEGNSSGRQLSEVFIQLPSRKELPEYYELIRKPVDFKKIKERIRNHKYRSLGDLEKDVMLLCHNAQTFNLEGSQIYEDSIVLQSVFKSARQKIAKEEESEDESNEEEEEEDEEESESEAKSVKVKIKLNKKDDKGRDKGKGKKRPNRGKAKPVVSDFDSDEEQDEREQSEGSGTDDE

SMILES	DC50 (HiBit-BRM fusion protein)	DC50 [1]	Dmax [1]	BRM HiBit Degradation Maximum (%) (HiBit-BRM fusion protein)
Cc1ncsc1-c1ccc([C@H](C)NC(=O)[C@@H]2C[C@@H](O)CN2C(=O)[C@@H](c2cc(N3CCN(C(=O)N4CC(c5cc6cc(-c7ccccc7O)nnc6[nH]5)C4)CC3)no2)C(C)C)cc1 (racemic) [Compound 124, (2S,4R)-4-hydroxy-1-[(2R)-2-[3-(4-{3-[3-(2-hydroxyphenyl)-7H-pyrrolo[2,3-c]pyridazin-6-yl]azetidine-1-carbonyl}piperazin-1-yl)-1,2-oxazol-5-yl]-3-methylbutanoyl]-N-[(1S)-1-[4-(4-methyl-1,3-thiazol-5-yl)phenyl]ethyl]pyrrolidine-2-carboxamide]	> 0.01 µM	> 0.1 µM		A (“A” indicates maximum degradation ≥ 75%)
Cc1ncsc1-c1ccc([C@H](C)NC(=O)[C@@H]2C[C@@H](O)CN2C(=O)[C@@H](c2cc(OCCN3C[C@@H]4[C@H](C3)[C@H]4c3[nH]c4nnc(-c5cc(F)cc(F)c5O)cc4c3C)no2)C(C)C)cc1 (racemic) [Compound 125, (2S,4R)-1-((R)-2-(3-(2-((1R,5S,6R)-6-(3-(3,5-difluoro-2-hydroxyphenyl)-5-methyl-7H-pyrrolo[2,3-c]pyridazin-6-yl)-3-azabicyclo[3.1.0]hexan-3-yl)ethoxy)isoxazol-5-yl)-3-methylbutanoyl)-4-hydroxy-N-((S)-1-(4-(4-methylthiazol-5-yl)phenyl)ethyl)pyrrolidine-2-carboxamide]	> 0.01 µM		< 50%	A (“A” indicates maximum degradation ≥ 75%)
Cc1ncsc1-c1ccc([C@H](C)NC(=O)[C@@H]2C[C@@H](O)CN2C(=O)[C@@H](c2cc(OCCN3CC(c4[nH]c5nnc(-c6cccc(F)c6O)cc5c4C)C3)no2)C(C)C)cc1 (racemic) [Compound 127, (2S,4R)-1-((R)-2-(3-(2-(3-(3-(3-fluoro-2-hydroxyphenyl)-5-methyl-7H-pyrrolo[2,3-c]pyridazin-6-yl)azetidin-1-yl)ethoxy)isoxazol-5-yl)-3-methylbutanoyl)-4-hydroxy-N-((S)-1-(4-(4-methylthiazol-5-yl)phenyl)ethyl)pyrrolidine-2-carboxamide]	> 0.01 µM		< 50%	A (“A” indicates maximum degradation ≥ 75%)
Cc1ncsc1-c1ccc([C@H](C)NC(=O)[C@@H]2C[C@@H](O)CN2C(=O)[C@@H](c2cc(OCCCN3C[C@@H]4[C@H](C3)[C@H]4c3c(C)[nH]c4nnc(-c5ccccc5O)cc34)no2)C(C)C)cc1 (racemic) [Compound 128, (2S,4R)-4-hydroxy-1-((R)-2-(3-(3-((1R,5S,6S)-6-(3-(2-hydroxyphenyl)-6-methyl-7H-pyrrolo[2,3-c]pyridazin-5-yl)-3-azabicyclo[3.1.0]hexan-3-yl)propoxy)isoxazol-5-yl)-3-methylbutanoyl)-N-((S)-1-(4-(4-methylthiazol-5-yl)phenyl)ethyl)pyrrolidine-2-carboxamide]	< 0.01 µM	> 0.01 µM	> 75%	A (“A” indicates maximum degradation ≥ 75%)
Cc1ncsc1-c1ccc([C@H](C)NC(=O)[C@@H]2C[C@@H](O)CN2C(=O)[C@@H](c2cc(OCCN3CC(c4[nH]c5nnc(-c6cc(F)cc(Cl)c6O)cc5c4C)C3)no2)C(C)C)cc1 (racemic) [Compound 129, (2S,4R)-1-((R)-2-(3-(2-(3-(3-(3-chloro-5-fluoro-2-hydroxyphenyl)-5-methyl-7H-pyrrolo[2,3-c]pyridazin-6-yl)azetidin-1-yl)ethoxy)isoxazol-5-yl)-3-methylbutanoyl)-4-hydroxy-N-((S)-1-(4-(4-methylthiazol-5-yl)phenyl)ethyl)pyrrolidine-2-carboxamide]	> 0.01 µM	> 0.1 µM	> 50%	A (“A” indicates maximum degradation ≥ 75%)
Cc1ncsc1-c1ccc([C@H](C)NC(=O)[C@@H]2C[C@@H](O)CN2C(=O)[C@@H](c2cc(OCCN3C[C@@H]4[C@H](C3)[C@H]4c3[nH]c4nnc(-c5ccccc5O)cc4c3Cl)no2)C(C)C)cc1 (racemic) [Compound 131, (2S,4R)-1-[(2R)-2-(3-{2-[(1R,5S,6S)-6-[5-chloro-3-(2-hydroxyphenyl)-7H-pyrrolo[2,3-c]pyridazin-6-yl]-3-azabicyclo[3.1.0]hexan-3-yl]ethoxy}-1,2-oxazol-5-yl)-3-methylbutanoyl]-4-hydroxy-N-[(1S)-1-[4-(4-methyl-1,3-thiazol-5-yl)phenyl]ethyl]pyrrolidine-2-carboxamide]	> 0.01 µM	> 0.1 µM	> 50%	A (“A” indicates maximum degradation ≥ 75%)
Cc1ncsc1-c1ccc([C@H](C)NC(=O)[C@@H]2C[C@@H](O)CN2C(=O)[C@@H](c2cc(OCCNC3CC[C@]34C[C@@H](c3cc5cc(-c6ccccc6O)nnc5[nH]3)C4)no2)C(C)C)cc1 (mixture of isomers) [Compound 133, (2S,4R)-4-hydroxy-1-((R)-2-(3-(2-(((1S,4r,6R)-6-(3-(2-hydroxyphenyl)-7H-pyrrolo[2,3-c]pyridazin-6-yl)spiro[3.3]heptan-1-yl)amino)ethoxy)isoxazol-5-yl)-3-methylbutanoyl)-N-((S)-1-(4-(4-methylthiazol-5-yl)phenyl)ethyl)pyrrolidine-2-carboxamide]	> 0.01 µM	> 0.1 µM	> 50%	A (“A” indicates maximum degradation ≥ 75%)
Cc1ncsc1-c1ccc([C@H](C)NC(=O)[C@@H]2C[C@@H](O)CN2C(=O)[C@@H](c2cc(OCCN3CC(C4(C)CNc5nnc(-c6ccccc6O)cc54)C3)no2)C(C)C)cc1 (mixture of isomers) [Compound 134]			< 50%	C (“C” indicates maximum degradation < 50%)

Second part, led by results:

DC50 (HiBit-BRM fusion protein)	DC50 [1]	Dmax [1]	SMILES	BRM HiBit Degradation Maximum (%) (HiBit-BRM fusion protein)
> 0.01 µM	> 0.1 µM	> 50%	Cc1ncsc1-c1ccc([C@H](C)NC(=O)[C@@H]2C[C@@H](O)CN2C(=O)[C@@H](c2cc(OCCN3C[C@@H]4[C@H](C3)[C@H]4c3[nH]c4nnc(-c5cccc(F)c5O)cc4c3C)no2)C(C)C)cc1 (racemic) [Compound 126, (2S,4R)-1-((R)-2-(3-(2-((1R,5S,6R)-6-(3-(3-fluoro-2-hydroxyphenyl)-5-methyl-7H-pyrrolo[2,3-c]pyridazin-6-yl)-3-azabicyclo[3.1.0]hexan-3-yl)ethoxy)isoxazol-5-yl)-3-methylbutanoyl)-4-hydroxy-N-((S)-1-(4-(4-methylthiazol-5-yl)phenyl)ethyl)pyrrolidine-2-carboxamide]	A (“A” indicates maximum degradation ≥ 75%)
< 0.01 µM	> 0.1 µM	> 75%	Cc1ncsc1-c1ccc([C@H](C)NC(=O)[C@@H]2C[C@@H](O)CN2C(=O)[C@@H](c2cc(OCCN3CC(c4[nH]c5nnc(-c6cc(F)ccc6O)cc5c4C)C3)no2)C(C)C)cc1 (racemic) [Compound 130, (2S,4R)-1-((R)-2-(3-(2-(3-(3-(5-fluoro-2-hydroxyphenyl)-5-methyl-7H-pyrrolo[2,3-c]pyridazin-6-yl)azetidin-1-yl)ethoxy)isoxazol-5-yl)-3-methylbutanoyl)-4-hydroxy-N-((S)-1-(4-(4-methylthiazol-5-yl)phenyl)ethyl)pyrrolidine-2-carboxamide]	A (“A” indicates maximum degradation ≥ 75%)
> 0.01 µM		< 50%	Cc1ncsc1-c1ccc([C@H](C)NC(=O)[C@@H]2C[C@@H](O)CN2C(=O)[C@@H](c2cc(OCCNC3CC[C@]34C[C@H](c3cc5cc(-c6ccccc6O)nnc5[nH]3)C4)no2)C(C)C)cc1 (mixture of isomers) [Compound 132, (2S,4R)-4-hydroxy-1-((R)-2-(3-(2-(((1S,4s,6S)-6-(3-(2-hydroxyphenyl)-7H-pyrrolo[2,3-c]pyridazin-6-yl)spiro[3.3]heptan-1-yl)amino)ethoxy)isoxazol-5-yl)-3-methylbutanoyl)-N-((S)-1-(4-(4-methylthiazol-5-yl)phenyl)ethyl)pyrrolidine-2-carboxamide]	A (“A” indicates maximum degradation ≥ 75%)
> 0.01 µM		< 50%	Cc1ncsc1-c1ccc([C@H](C)NC(=O)[C@@H]2C[C@@H](O)CN2C(=O)[C@@H](c2cc(C3CN(Cc4cc5cc(-c6ccccc6O)nnc5[nH]4)C3)no2)C(C)C)cc1 (racemic) [Compound 138, (2S,4R)-4-hydroxy-1-((R)-2-(3-(1-((3-(2-hydroxyphenyl)-7H-pyrrolo[2,3-c]pyridazin-6-yl)methyl)azetidin-3-yl)isoxazol-5-yl)-3-methylbutanoyl)-N-((S)-1-(4-(4-methylthiazol-5-yl)phenyl)ethyl)pyrrolidine-2-carboxamide]	A (“A” indicates maximum degradation ≥ 75%)
> 0.1 µM		< 50%	Cc1ncsc1-c1ccc([C@H](C)NC(=O)[C@@H]2C[C@@H](O)CN2C(=O)[C@@H](c2cc(OCCN3CC(Oc4c[nH]c5nnc(-c6ccccc6O)cc45)C3)no2)C(C)C)cc1 (racemic) [Compound 139, (2S,4R)-4-hydroxy-1-[(2R)-2-{3-[2-(3-{[3-(2-hydroxyphenyl)-7H-pyrrolo[2,3-c]pyridazin-5-yl]oxy}azetidin-1-yl)ethoxy]-1,2-oxazol-5-yl}-3-methylbutanoyl]-N-[(1S)-1-[4-(4-methyl-1,3-thiazol-5-yl)phenyl]ethyl]pyrrolidine-2-carboxamide]	B (“B” indicates maximum degradation ≥ 50%)
